Peptide text beside a SMILES is read from it.
Assays:
[1] = In vitro peptide stability in RPMI medium with 25% (v/v) human serum (RP-HPLC); format: in vitro ADME; conditions: 37° C., up to 24 hours
Procedure: (§1) Stock peptide solutions for use in stability assays were prepared by dissolving tR1 to a final concentration of 5 mg/mL in dimethyl sulfoxide (DMSO). For stability tests, 2 μL of stock tR1 peptides were added to 198 μL pre-warmed RPMI medium supplemented with 25% (v/v) heat-inactivated human AB serum or neurobasal (NB) media at a final concentration of 50 μg/mL. Each reaction was subsequently incubated at 37° C. for the indicated times. Following incubation, 400 μL aqueous trichloroacetic acid (15%, w/v) was added to each reaction and the samples were immediately cooled on ice for 15 minutes. The samples were then centrifuged 3× at 14,000 rpm to remove precipitated proteins. […] The background signal was subtracted from each respective spectrum and the fraction of intact peptide was quantified from product peak integration normalized to undigested controls. […]
(§2) A major limitation to the therapeutic efficacy of peptides is their susceptibility to proteolytic degradation. Indeed, short peptides generally have a serum half-life measured in minutes. The in vitro stability of tR1 peptides in the presence of proteolytic enzymes was determined. […] Following the incubation, the reactions were quenched using haloacetic acids and the extent of degradation was quantified by analytical HPLC.

[2] = test system: kinases that phosphorylate tau at Thr231; experiment: Immunofluorescence of tau Thr231 phosphorylation in neurons; format: cell-based, rat
MARK2 [3] = biological target: MARK2 (Rattus norvegicus, UniProt O08679); experiment: Immunofluorescence of PAO-induced MARK2-mediated tau Ser262 phosphorylation in neurons; format: cell-based
MARK2 (Rattus norvegicus, UniProt O08679), sequence (O08679 whole entry): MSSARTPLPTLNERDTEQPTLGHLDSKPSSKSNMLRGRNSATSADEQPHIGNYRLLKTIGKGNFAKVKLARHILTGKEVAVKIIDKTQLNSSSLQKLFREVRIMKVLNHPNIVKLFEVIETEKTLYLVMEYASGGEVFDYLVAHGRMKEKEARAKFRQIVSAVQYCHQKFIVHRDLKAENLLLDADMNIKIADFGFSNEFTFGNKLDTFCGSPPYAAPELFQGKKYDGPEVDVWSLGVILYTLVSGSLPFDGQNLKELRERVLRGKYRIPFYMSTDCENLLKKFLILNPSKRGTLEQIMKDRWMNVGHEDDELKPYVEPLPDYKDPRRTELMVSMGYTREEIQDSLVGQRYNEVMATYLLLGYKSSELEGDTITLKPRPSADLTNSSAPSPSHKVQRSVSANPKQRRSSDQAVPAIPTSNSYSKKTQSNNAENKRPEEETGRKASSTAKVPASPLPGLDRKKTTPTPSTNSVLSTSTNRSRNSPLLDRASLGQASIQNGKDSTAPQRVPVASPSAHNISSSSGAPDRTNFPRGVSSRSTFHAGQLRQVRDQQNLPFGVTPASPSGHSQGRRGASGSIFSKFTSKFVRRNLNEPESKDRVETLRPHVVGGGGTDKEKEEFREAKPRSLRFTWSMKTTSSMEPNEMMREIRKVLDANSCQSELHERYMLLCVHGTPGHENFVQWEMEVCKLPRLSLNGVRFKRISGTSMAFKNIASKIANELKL

trypsin = experiment: Trypsin degradation control (RP-HPLC); format: in vitro ADME; conditions: 37° C.
Procedure: as §1, §2

[4] = test system: rat primary cortical neurons; conditions: 72 hours
Procedure: Primary cells were isolated from embryonic Sprauge-Dawley rats and cultured as described.
High density rat primary cortical neurons (5-7 DIV) cultured in polyE coated 24-well plates were used for this assay. Culture media was switched to neurobasal without B27 supplement (NB-B27) before the addition of tR1 peptides. […] For the MTT assay, 50 μg/mL MTT working solution was diluted from a 5 mg/mL MTT stock (water solution made from MTT powder, Alfa Aesar L11939) in NB-B27. After aspirating out the culture media, cells were incubated with 0.2 mL 50 μg/mL MTT working solution for one hour at 37° C. Then, the MTT solution was aspirated and replaced with 0.5 mL DMSO. The whole DMSO solution was transferred to a cuvette and read in the spectrophotometer (Cary UV 50, Varian) at 550 nm with subtraction of the reading at 650 nm wavelength.

MARK2 [5] = biological target: MARK2 (Homo sapiens, UniProt Q7KZI7); experiment: In vitro phosphorylation assay: inhibition of MARK2-mediated phosphorylation of hTau-K18 (western blot, α-Tau pSer262); format: biochemical
MARK2 (Homo sapiens, UniProt Q7KZI7), sequence (Q7KZI7 whole entry): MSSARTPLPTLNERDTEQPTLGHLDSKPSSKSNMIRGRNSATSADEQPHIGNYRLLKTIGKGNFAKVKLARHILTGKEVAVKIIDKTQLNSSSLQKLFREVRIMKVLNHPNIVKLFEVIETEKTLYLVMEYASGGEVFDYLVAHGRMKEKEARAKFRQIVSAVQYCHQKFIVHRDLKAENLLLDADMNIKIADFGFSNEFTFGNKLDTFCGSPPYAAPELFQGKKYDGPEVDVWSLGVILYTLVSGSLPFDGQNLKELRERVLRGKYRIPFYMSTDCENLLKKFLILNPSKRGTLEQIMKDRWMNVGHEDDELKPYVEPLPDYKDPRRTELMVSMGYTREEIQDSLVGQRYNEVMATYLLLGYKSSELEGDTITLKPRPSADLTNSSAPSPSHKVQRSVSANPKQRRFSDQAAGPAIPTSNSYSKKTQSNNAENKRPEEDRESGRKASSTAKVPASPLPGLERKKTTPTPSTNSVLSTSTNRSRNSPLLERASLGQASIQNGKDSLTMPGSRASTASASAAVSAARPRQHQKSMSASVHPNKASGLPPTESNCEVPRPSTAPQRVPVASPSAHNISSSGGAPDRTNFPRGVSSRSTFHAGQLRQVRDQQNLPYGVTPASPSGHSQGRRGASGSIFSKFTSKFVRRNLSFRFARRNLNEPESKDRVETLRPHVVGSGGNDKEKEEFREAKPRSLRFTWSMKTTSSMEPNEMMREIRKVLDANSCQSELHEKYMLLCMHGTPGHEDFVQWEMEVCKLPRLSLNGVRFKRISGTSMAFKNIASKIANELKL
Procedure: The ability for MARK2 to phosphorylate hTau K18 was evaluated in vitro by incubating MARK2 with hTau-K18 in the presence or absence of ATP (FIG. 1B). All phosphorylation reactions were carried out for 60 minutes at 32° C. in phosphorylation buffer (50 mM Tris-HCl, 5 mM MgCl2, 2 mM EGTA, 0.5 mM DTT, 0.5 mM benzamidine HCl, 0.5 mM PMSF, pH 8.0). Following the reaction, phosphorylated hTau-K18 proteins were separated by SDS-PAGE and identified by western blot using antibodies specific for hTau pSer262 (FIG. 1B, lanes 1 and 2). As a loading control, total hTau-K18 in each lane was quantified by western blot using antibodies specific for non-phosphorylated hTau-K18 (FIG. 1B, lower image). To ensure that the phosphorylation of hTau-K18 was a result of kinase activity and not auto-phosphorylation by ATP, hTau-K18 was incubated in the absence of MARK2 with or without ATP (FIG. 1B, lanes 3 and 4).
The ability for the tR1 peptide to act as an inhibitor of MARK2-mediated phosphorylation of hTau-K18 in vitro was examined. To test this, MARK2 and hTau-K18 were incubated in the presence of varying concentrations of tR1 for 60 minutes at 32° C. in phosphorylation buffer. Following the reaction, the proteins were separated by SDS-PAGE and identified by Western blot using antibodies specific for hTau pSer262 (FIG. 1C). Total hTau-K18 in each lane was quantified using antibodies specific for non-phosphorylated hTau-K18 (FIG. 1C, lower image).
Phosphorylation assays were performed in 30 μL phosphorylation buffer (50 mM Tris-HCl, 5 mM MgCl2, 2 mM EGTA, 0.5 mM DTT, 0.5 mM benzamidine HCl, 0.5 mM PMSF, pH 8.0) and depending on the experimental conditions. 100 μM ATP, 10 μM hTau K18, 10 nM MARK2, and 10 μM tR1 were added to the reaction mixture. The reaction was carried out for 1 hour at 32° C. […] Images were acquired by a Bio-Rad Gel Doc EZ imager and the band intensity was quantified using Image Lab Software c5.2.1 (Bio-Rad).

CC[C@H](C)[C@H](NC(=O)[C@H](CCCCN)NC(=O)[C@H](CO)NC(=O)[C@H](CCCCN)NC(=O)[C@@H](NC(=O)[C@H](CC(N)=O)NC(C)=O)C(C)C)C(=O)NCC(=O)N[C@@H](CO)C(=O)N[C@H](C(=O)N[C@@H](CCC(=O)O)C(=O)N[C@@H](CC(N)=O)C(=O)N[C@@H](CC(C)C)C(=O)N[C@@H](CCCCN)C(N)=O)[C@@H](C)O [tR1, NVKSKIGSTENLK] (Ac-NVKSKIGSTENLK-NH2)
fraction of intact tR1 (stable) [1]: > 90%
remaining at 24 h, 50 μg/mL ([1]; RPMI medium with 25% (v/v) heat-inactivated human AB serum, read-out: fraction of intact tR1 (stable)): > 90%
level of pTau Thr231 compared to untreated control cells ([2]; 30 μM tR1 and 100 μM CLQ, no PAO): did not show any significant loss of pTau Thr231
effect on PAO-mediated inhibition of tau Thr231 phosphorylation ([2]; tR1 with PAO, even in the presence of CLQ): did not influence the PAO-mediated inhibition of tau Thr231 phosphorylation
reduction in tau Ser262 phosphorylation (MARK2 [3]; 10 μM tR1, co-treated with bafilomycin A1 or 100 μM chloroquine, 5 μM PAO): modest reduction in tau phosphorylation
loss in tau pSer262 signal compared to cells treated with PAO alone (MARK2 [3]; 30 μM peptide and bafilomycin, PAO): ~50%
loss in tau pSer262 signal (MARK2 [3]; 30 μM peptide and chloroquine, PAO): loss in signal comparable to that of baseline
inhibition of MARK2-mediated phosphorylation of tau Ser262 (MARK2 [3]; 30 μM tR1, co-treated with bafilomycin A1 or 100 μM chloroquine, 5 μM PAO): near complete inhibition
inhibition of MARK2-mediated phosphorylation of tau Ser262 (MARK2 [3]; tR1 peptides alone (no endosome disruptor), 5 μM PAO): did not inhibit
degradation by trypsin (trypsin; trypsin 10 ng/μL in digestion buffer, 15 minutes): complete degradation
time to degradation in buffer containing trypsin (trypsin; trypsin 10 ng/μL): less than 15 minutes
concentrations at which tR1 is non-toxic ([4]; MTT): up to 300 μM
loss in cell viability ([4]; highest concentrations of tR1 (0-300 μM)): < 5%
established in vitro inhibitory concentration (MARK2 [5]): 10 µM
inhibition at 50 µM (MARK2 [5]; 50 μM tR1, 60 minutes at 32° C. in phosphorylation buffer, read-out: inhibition of MARK2 activity (hTau-K18 Ser262 phosphorylation, densitometry)): ≤ 66%
concentrations at which tR1 effectively inhibits MARK2-mediated phosphorylation of hTau-K18 (MARK2 [5]; 60 minutes at 32° C., western blot): greater than 0.5 μM

Reference: US20210147481A1, “PEPTIDE-BASED INHIBITORS OF MARK FAMILY PROTEINS” (Ohio Universtiy, priority 2017, published 2021)
